From the NIST ThermoML archive (doi:10.1016/j.jct.2015.12.027)

Tests used:
[1] = xn = mol fraction of the nth substance listed; conditions: 81.5 kPa, Liquid, Vibrating tube method
[2] = refractive index (Na D-line) (dimensionless); xn = mol fraction of the nth substance listed; conditions: 81.5 kPa, Liquid, Standard Abbe refractometry

Brc1ccccc1 [bromobenzene] + ClCCCl
Conditions	mass density, 293.15 K [kg/m3]	mass density, 303.15 K [kg/m3]	mass density, 313.15 K [kg/m3]	mass density, 323.15 K [kg/m3]	mass density, 333.15 K [kg/m3]	refractive index, 293.15 K	refractive index, 303.15 K	refractive index, 313.15 K	refractive index, 323.15 K	refractive index, 333.15 K
[1], x2 = 0	1495.52	1481.97	1468.41	1454.85	1441.22	–	–	–	–	–
[1], x2 = 0.1031	1475.66	1461.99	1448.3	1434.54	1420.74	–	–	–	–	–
[1], x2 = 0.2005	1455.9	1442.07	1428.17	1414.26	1400.29	–	–	–	–	–
[1], x2 = 0.3001	1434.62	1420.64	1406.6	1392.5	1378.34	–	–	–	–	–
[1], x2 = 0.3997	1412.26	1398.16	1383.98	1369.73	1355.39	–	–	–	–	–
[1], x2 = 0.4996	1388.86	1374.68	1360.39	1345.98	1331.47	–	–	–	–	–
[1], x2 = 0.6001	1364.37	1350.09	1335.69	1321.15	1306.48	–	–	–	–	–
[1], x2 = 0.6993	1339.1	1324.73	1310.2	1295.56	1280.77	–	–	–	–	–
[1], x2 = 0.7993	1312.25	1297.77	1283.16	1268.43	1253.56	–	–	–	–	–
[1], x2 = 0.8986	1283.81	1269.28	1254.59	1239.77	1224.87	–	–	–	–	–
[2], x2 = 0	–	–	–	–	–	1.55981	1.55442	1.5489	1.54319	1.53742
[2], x2 = 0.1031	–	–	–	–	–	1.55145	1.5466	1.54165	1.53652	1.53135
[2], x2 = 0.2005	–	–	–	–	–	1.54415	1.53939	1.53455	1.52957	1.52458
[2], x2 = 0.3001	–	–	–	–	–	1.53597	1.53114	1.52627	1.5213	1.51632
[2], x2 = 0.3997	–	–	–	–	–	1.5262	1.52135	1.51645	1.51147	1.5065
[2], x2 = 0.4996	–	–	–	–	–	1.51453	1.50972	1.50487	1.49994	1.49501
[2], x2 = 0.6001	–	–	–	–	–	1.50149	1.49679	1.49202	1.48719	1.48235
[2], x2 = 0.6993	–	–	–	–	–	1.48764	1.48301	1.47833	1.47357	1.46881
[2], x2 = 0.7993	–	–	–	–	–	1.47349	1.46883	1.46414	1.45938	1.45461
[2], x2 = 0.8986	–	–	–	–	–	1.45961	1.45476	1.44989	1.44499	1.44008

Clc1ccccc1 [chlorobenzene] + ClCCCl
Conditions	mass density, 293.15 K [kg/m3]	mass density, 303.15 K [kg/m3]	mass density, 313.15 K [kg/m3]	mass density, 323.15 K [kg/m3]	mass density, 333.15 K [kg/m3]	refractive index, 293.15 K	refractive index, 303.15 K	refractive index, 313.15 K	refractive index, 323.15 K	refractive index, 333.15 K
[1], x2 = 0	1106.49	1095.71	1084.86	1073.96	1063.01	–	–	–	–	–
[1], x2 = 0.1022	1117.76	1106.63	1095.44	1084.22	1073.02	–	–	–	–	–
[1], x2 = 0.2027	1129.4	1117.99	1106.5	1094.94	1083.38	–	–	–	–	–
[1], x2 = 0.3126	1142.87	1131.14	1119.28	1107.34	1095.38	–	–	–	–	–
[1], x2 = 0.4014	1154.41	1142.36	1130.2	1117.94	1105.63	–	–	–	–	–
[1], x2 = 0.4994	1167.89	1155.52	1142.99	1130.34	1117.61	–	–	–	–	–
[1], x2 = 0.6002	1182.73	1169.98	1157.05	1143.96	1130.77	–	–	–	–	–
[1], x2 = 0.7	1198.46	1185.33	1171.98	1158.43	1144.78	–	–	–	–	–
[1], x2 = 0.7999	1215.33	1201.74	1187.98	1173.96	1159.89	–	–	–	–	–
[1], x2 = 0.9007	1233.56	1219.46	1205.18	1190.75	1176.31	–	–	–	–	–
[2], x2 = 0	–	–	–	–	–	1.52455	1.51902	1.51346	1.50781	1.50223
[2], x2 = 0.1022	–	–	–	–	–	1.51915	1.51376	1.50848	1.50327	1.49826
[2], x2 = 0.2027	–	–	–	–	–	1.51388	1.50871	1.50361	1.49855	1.49366
[2], x2 = 0.3126	–	–	–	–	–	1.50734	1.50235	1.49739	1.4924	1.4875
[2], x2 = 0.4014	–	–	–	–	–	1.50115	1.49625	1.49135	1.48642	1.48154
[2], x2 = 0.4994	–	–	–	–	–	1.49334	1.48847	1.48362	1.47874	1.47393
[2], x2 = 0.6002	–	–	–	–	–	1.48436	1.47949	1.47465	1.4698	1.46504
[2], x2 = 0.7	–	–	–	–	–	1.47478	1.46991	1.46504	1.46017	1.45535
[2], x2 = 0.7999	–	–	–	–	–	1.46481	1.45993	1.455	1.45001	1.44502
[2], x2 = 0.9007	–	–	–	–	–	1.45465	1.44969	1.44464	1.43948	1.43427
